What was measured:
Assay type in all cases: in vivo
[1] = tested on: blackgrass (Alopecurus myosuroides); assay: Test C preemergence, blackgrass; settings: 0 is no effect, 100 is complete control
Method in brief: (§1)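 Pre: soil sprayed at seeding. Post: seedlings treated at 1–2 leaves (2–10 cm). Vehicle non-phytotoxic solvent mix with surfactant; loam–sand medium; greenhouse; visual injury read at 10 or 12 days, scale 0–100.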

corn (Zea mays) = assay: Test C preemergence, corn; settings: 0 is no effect, 100 is complete control
Method in brief: (§2)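 Visual injury rating, 0 (no effect) to 100 (complete control), versus untreated controls after 10 or 12 days in the greenhouse. Compounds were formulated in non-phytotoxic solvent plus surfactant and applied either as a directed soil spray at sowing or onto emerged one- to two-leaf plants.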

[2] = tested on: goosegrass (Eleusine indica); assay: Test C preemergence, goosegrass; settings: 0 is no effect, 100 is complete control
Method in brief: as §2

[3] = tested on: oat, wild (wild oat, Avena fatua); assay: Test C preemergence, wild oat; settings: 0 is no effect, 100 is complete control
Method in brief: as §1

[4] = tested on: pigweed, palmer (palmer amaranth, Amaranthus palmeri); assay: Test C preemergence, palmer amaranth; settings: 0 is no effect, 100 is complete control
Method in brief: as §1

[5] = tested on: ryegrass, Italian (Italian ryegrass, Lolium multiflorum); assay: Test C preemergence, Italian ryegrass; settings: 0 is no effect, 100 is complete control
Method in brief: as §1

[6] = tested on: wheat (Triticum aestivum); assay: Test C preemergence, wheat; settings: 0 is no effect, 100 is complete control
[7] = tested on: galium (catchweed bedstraw, Galium aparine); assay: Test C postemergence, galium; settings: for Galium plant response rating: visual injury, 0 to 100 scale (0 no effect, 100 complete control); for Plant response rating (0 to 100 scale), Galium: 0 is no effect, 100 is complete control
[8] = tested on: horseweed (Erigeron canadensis); assay: Test C postemergence, horseweed; settings: for Horseweed plant response rating: visual injury, 0 to 100 scale (0 no effect, 100 complete control); for Plant response rating (0 to 100 scale), Horseweed: 0 is no effect, 100 is complete control
Method in brief: as §1

SMILES	Plant response rating (0 to 100 scale), Blackgrass ([1]; 31 g ai/ha Preemergence)	Plant response rating (0 to 100 scale), Blackgrass ([1]; 125 g ai/ha Preemergence)	Plant response rating (0 to 100 scale), Corn (corn (Zea mays); 31 g ai/ha Preemergence)	Plant response rating (0 to 100 scale), Corn (corn (Zea mays); 125 g ai/ha Preemergence)	Plant response rating (0 to 100 scale), Goosegrass ([2]; 31 g ai/ha Preemergence)	Plant response rating (0 to 100 scale), Goosegrass ([2]; 125 g ai/ha Preemergence)	Plant response rating (0 to 100 scale), Oat, Wild ([3]; 31 g ai/ha Preemergence)	Plant response rating (0 to 100 scale), Oat, Wild ([3]; 125 g ai/ha Preemergence)	Plant response rating (0 to 100 scale), Pigweed, Palmer ([4]; 31 g ai/ha Preemergence)	Plant response rating (0 to 100 scale), Pigweed, Palmer ([4]; 125 g ai/ha Preemergence)	Plant response rating (0 to 100 scale), Ryegrass, Italian ([5]; 31 g ai/ha Preemergence)	Plant response rating (0 to 100 scale), Ryegrass, Italian ([5]; 125 g ai/ha Preemergence)	Plant response rating (0 to 100 scale), Wheat ([6]; 31 g ai/ha Preemergence)	Plant response rating (0 to 100 scale), Wheat ([6]; 125 g ai/ha Preemergence)	Galium plant response rating ([7]; 31 g ai/ha Postemergence)	Plant response rating (0 to 100 scale), Galium ([7]; 125 g ai/ha Postemergence)	Horseweed plant response rating ([8]; 31 g ai/ha Postemergence)	Plant response rating (0 to 100 scale), Horseweed ([8]; 125 g ai/ha Postemergence)	Galium plant response rating ([7]; 125 g ai/ha Postemergence)	Horseweed plant response rating ([8]; 125 g ai/ha Postemergence)
Cc1cc(Cl)c(N(COC(=O)C(C)(C)C)S(=O)(=O)C(F)(F)F)cc1N1CCC(OC2CC2)C1=O (stereo not drawn) [Compound 33]	20	80	30	60	90	100	10	50	70	80	20	100	10	40	100	100	70	100	–	–
Cc1cc(C)c(N2CCC(OC3COC3)C2=O)cc1NS(=O)(=O)C(F)(F)F (stereo not drawn) [Compound 34]	30	50	10	80	30	100	30	80	100	100	40	80	30	80	100	100	90	100	–	–
Cc1c(NS(=O)(=O)C(F)(F)F)cc(N2CCCC(OC3CC3)C2=O)c(C)c1F (stereo not drawn) [Compound 35]	70	100	30	50	100	100	20	90	100	100	100	100	20	100	70	100	90	100	–	–
CC(=O)N(c1cc(N2CCC(OC3CC3)C2=O)c(C)cc1Cl)S(=O)(=O)C(F)(F)F (stereo not drawn) [Compound 38]	80	90	20	80	100	100	30	100	90	100	80	100	40	90	90	100	90	100	–	–
Cc1c(N2CCCC(OC3CCC3)C2=O)cc(N(COC(=O)C(C)(C)C)S(=O)(=O)C(F)(F)F)c(C)c1F (stereo not drawn) [Compound 39]	0	20	0	10	10	60	0	0	0	40	0	60	0	0	80	90	70	90	–	–
COC(=O)N(c1cc(N2CCC(OC3CC3)C2=O)c(C)cc1Cl)S(=O)(=O)C(F)(F)F (stereo not drawn) [Compound 40]	50	90	50	90	100	100	10	90	80	100	90	100	60	100	80	100	80	80	–	–
Cc1cc(C)c(N2CCC(OCC3CC3(F)F)C2=O)cc1NS(=O)(=O)C(F)(F)F (stereo not drawn) [Compound 41]	80	100	90	100	90	100	60	100	100	100	100	100	90	100	100	–	70	–	100	100
Cc1cc(C)c(N2CCC(OCC3CCC3)C2=O)cc1NS(=O)(=O)C(F)(F)F (stereo not drawn) [Compound 43]	40	50	40	100	60	100	0	50	70	100	80	100	20	100	70	–	30	–	90	60
Cc1c(NS(=O)(=O)C(F)(F)F)cc(N2CCC(OC3CCC3)C2=O)c(C)c1C (stereo not drawn) [Compound 45]	60	90	90	100	100	100	80	90	100	100	50	90	60	100	100	–	30	–	100	90
C#CC(C)OC1CCN(c2cc(NS(=O)(=O)C(F)(F)F)c(C)cc2C)C1=O (stereo not drawn) [Compound 58]	80	100	20	100	100	100	90	100	100	100	90	100	90	100	90	–	90	–	90	90
C=C(C)COC1CCN(c2cc(NS(=O)(=O)C(F)(F)F)c(C)cc2C)C1=O (stereo not drawn) [Compound 59]	70	90	40	100	90	100	80	100	100	100	30	100	40	100	100	–	20	–	100	80
